Legend:
BACE1 proteins = experiment: Amount of expression of BACE1 proteins in brain nerve cells (Western blot); format: cell-based, human; conditions: SH-SY5Y cells, treated 24 hours at 0.625, 1.25, 2.5, 5 and 10 μM, actin control
Description: As brain nerve cells, human neuroblastoma cells SH-SY5Y were used. […] The SH-SY5Y cells were plated at 5×10^5 cells/well into a 6-well plate. […] Then, the amount of expression of BACE1 proteins was determined by Western blot. Actin was used throughout as a control.

3×Tg-AD mice [1] = experiment: Morris water maze test, learning ability, Alzheimer's dementia animal model; format: in vivo, mouse; conditions: 25 mg/kg orally every day for 4 weeks, on the third and fourth days
Description: (§1) As an Alzheimer's dementia animal model, 3×Tg-AD mice were used. The 3×Tg-AD mouse is a mouse having overexpressed presenilin, amyloid precursor protein (APP), and Tau genes, which are frequently found in Alzheimer's dementia. The 3×Tg-AD mouse is an animal model that is widely used for research on Alzheimer's dementia (Oddo S. et al, 2003, Neuron, 39, 409-421). 25 mg/kg of chlorhexidine was orally administered every day for 4 weeks; and 0.1 mg/kg and 0.5 mg/kg of thioguanosine were orally administered every day for 8 weeks to 6-month old 3×Tg-AD mice. A Morris water maze test was used to evaluate the effects of chlorhexidine and thioguanosine administration on the mice. […] In this configuration, a treated or control subject was placed into the water with its head towards a water tank wall surface, and a time was recorded for the length of time taken for finding the escape platform. […] After 15 minutes, the mouse was placed into the water again, a subsequent time taken for finding the escape platform was recorded, and a change in the learning ability was determined. This procedure was performed over four days, and the result of change in learning ability was measured. […]

BACE1 mRNA = BACE1 mRNA in brain of Alzheimer's dementia animal model (real-time PCR); format: in vivo; conditions: 3×Tg-AD mouse, 25 mg/kg orally every day for 4 weeks
Description: (§2) As an Alzheimer's dementia animal model, 3×Tg-AD mice were used. The 3×Tg-AD mouse is a mouse having overexpressed presenilin, amyloid precursor protein (APP), and Tau genes, which are frequently found in Alzheimer's dementia. The 3×Tg-AD mouse is an animal model that is widely used for research on Alzheimer's dementia (Oddo S. et al, 2003, Neuron, 39, 409-421). 25 mg/kg of chlorhexidine was orally administered every day for 4 weeks; and 0.1 mg/kg and 0.5 mg/kg of thioguanosine were orally administered every day for 8 weeks to 6-month old 3×Tg-AD mice. A Morris water maze test was used to evaluate the effects of chlorhexidine and thioguanosine administration on the mice.
From the 3×Tg-AD mouse to which chlorhexidine was administered in Example 4a brain was extracted. The extracted brain was lysed using a tissue lysis buffer and RNA was extracted using Trizol. The amount of BACE1 expression was determined by Western blot and real-time PCR. FIGS. 18 and 19 show the results.

APP CTFs (C83 and C99) = experiment: Generation of APP CTFs (C83 and C99) under oxidative stress conditions of brain nerve cells (Western blot); format: cell-based, human; conditions: SH-SY5Y cells pretreated 24 hours at 5 and 10 μM, then HNE
Description: In order to determine an influence of chlorhexidine and thioguanosine of the present disclosure on APP CTFs under oxidative stress conditions of brain nerve cells, the following experiment was performed. Brain nerve cells, SH-SY5Y cells, were pretreated with chlorhexidine and thioguanosine at 5 μM and 10 μM for 24 hours. Then, an oxidative stress substance HNE (4-hydroxynonenal) was used as the treatment, and the generation of APP CTFs (C83 and C99) was determined by Western blot. Under oxidative stress conditions of brain nerve cells treated in accordance with the present disclosure, changes in the generation of APP CTFs are shown in FIGS. 11 and 12.

Aβ40 and Aβ42 = experiment: Generation of Aβ40 and Aβ42 in brain, human amyloid β assay kits (ELISA); format: in vivo; conditions: 3×Tg-AD mouse brain, 25 mg/kg orally every day for 4 weeks
Description: as §2
From the 3×Tg-AD mouse to which chlorhexidine was administered in Example 4a brain was extracted. A […] frozen section was prepared from the extracted brain using a microtome. Then, generation of Aβ was measured using immuno staining or a human amyloid 13 (1-40) assay kit (IBL) and a human amyloid β (1-42) assay kit (IBL). FIGS. 20 and 21 show the results.

3×Tg-AD mice [2] = experiment: Morris water maze, platform removed on fifth day (memory); format: in vivo, mouse; conditions: 25 mg/kg orally every day for 4 weeks, 60 seconds
Description: as §1

BACE1 promoter = BACE1 promoter activity, BACE1 promoter-luciferase vector, Dual-Luciferase assay; format: cell-based; conditions: Homo sapiens; SH-SY5Y transfected with BACE1 promoter-luciferase vector, 10 μM for 24 hours; read-out: decrease of BACE1 promoter activity
Description: A BACE1 promoter-luciferase vector was transfected to brain nerve cells (SH-SY5Y). […] A change in a BACE1 promoter activity was measured using a Dual-Luciferase assay kit.

[3] = Body weights and weights of organs (potential toxicity); conditions: mouse, in vivo, po, 25 mg/kg
Description: as §2
In order to evaluate potential toxicity of chorhexidine, the body weights and weights of organs were measured for treatment and vehicle subjects.

[H]/N=C(\N/C(=N/[H])NCCCCCCNC(=N)NC(=N)Nc1ccc(Cl)cc1)Nc1ccc(Cl)cc1 [chlorhexidine, N′,N′″″-hexane-1,6-diylbis[N-(4-chlorophenyl)(imidodicarbonimidic diamide)]]
amount of expression of BACE1 proteins (BACE1 proteins): decreased at 5 μM and 10 μM | learning ability for finding the platform (Morris water maze) (3×Tg-AD mice [1]): faster learning ability for finding the platform than a control group | amount of BACE1 mRNA in brain (BACE1 mRNA): lower amount of BACE1 mRNA than that of the control group | increase in CTFs due to oxidative stress (APP CTFs (C83 and C99)): decreased at 5 μM and 10 μM | generation of Aβ40 (Aβ40 and Aβ42): decreased | generation of Aβ42 (Aβ40 and Aβ42): decreased | memory: time in target quadrant after platform removed (3×Tg-AD mice [2]): spent the majority of time in the location in which the platform was formerly placed | inhibition at 10 µM (BACE1 promoter): ≥ 50% | toxicity [3]: no toxicity was determined
